The record followed here is patent publication US9115127B2 (AMGEN INC., priority 2010, dated 2015).

A word on the IC50: it is the concentration that inhibits the measured activity by half. A low value points to inhibition by little substance.

T1 sequence (Q9UM73 1058-1620): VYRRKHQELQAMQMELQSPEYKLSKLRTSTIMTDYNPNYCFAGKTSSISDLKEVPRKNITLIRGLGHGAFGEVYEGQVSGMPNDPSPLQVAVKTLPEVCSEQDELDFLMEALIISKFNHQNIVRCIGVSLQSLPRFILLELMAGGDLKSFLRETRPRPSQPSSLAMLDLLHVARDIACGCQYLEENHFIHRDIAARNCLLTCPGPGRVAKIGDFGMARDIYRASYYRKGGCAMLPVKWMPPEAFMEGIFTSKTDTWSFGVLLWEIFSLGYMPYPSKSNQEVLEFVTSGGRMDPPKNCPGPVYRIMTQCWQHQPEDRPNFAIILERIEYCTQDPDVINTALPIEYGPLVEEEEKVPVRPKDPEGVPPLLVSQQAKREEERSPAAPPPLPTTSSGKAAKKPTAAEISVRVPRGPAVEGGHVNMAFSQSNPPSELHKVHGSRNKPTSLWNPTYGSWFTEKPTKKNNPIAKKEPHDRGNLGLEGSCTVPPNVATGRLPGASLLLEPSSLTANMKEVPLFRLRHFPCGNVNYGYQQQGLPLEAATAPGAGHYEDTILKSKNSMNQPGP

The assay addresses T1, wild-type human ALK (cytoplasmic domain, amino acids 1058-1620, N-terminal GST fusion) (Homo sapiens, UniProt Q9UM73).
T1 construct: The cytoplasmic domain (amino acids 1058-1620) of wild-type human ALK; GST (N); made in house; host or cells: SF9 insect cells
Description: ALK Inhibition in Enzyme Assay (Lance TR-FRET kinase assay). In kind it is biochemical. In a few lines: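 TR-FRET read-out (Eu-W1024 PT66 anti-phosphotyrosine plus streptavidin-allophycocyanin, 320 nm excitation) quantified biotinylated peptide phosphorylation by the purified kinase. Reaction ran 90 minutes at room temperature before quenching with 20 mM EDTA in Tris pH 7.5 buffer with NaCl, BSA and Tween-20.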
A general note: In TR-FRET formats the signal depends on donor and acceptor labels being close together.
In turn, `CC(C)NC(=O)[C@H]1CC[C@@H](n2/c(=N/C(=O)c3ccc(F)cc3)[nH]c3ccc(CN4CCC(S(=O)(=O)O)CC4)cc32)CC1` [Example 181, 1-(((E)-2-(4-Fluorobenzoylimino)-3-(cis-4-(isopropylcarbamoyl)-cyclohexyl)-2,3-dihydro-1H-benzo[d]imidazol-5-yl)methyl)piperidine-4-sulfonic acid] registered an IC50 of less than 50 nM. With `CC(C)NC(=O)[C@H]1CC[C@@H](n2/c(=N/C(=O)c3ccc(F)cc3)[nH]c3ccc(CN4CCC(C(=O)N5CCOCC5)CC4)cc32)CC1` [Example 182, (E)-4-Fluoro-N-(1-(cis-4-(isopropylcarbamoyl)cyclohexyl)-6-((4-(morpholine-4-carbonyl)piperidin-1-yl)methyl)-1H-benzo[d]imidazol-2(3H)-ylidene)benzamide], the IC50 was less than 50 nM. As for `CC(C)NC(=O)[C@H]1CC[C@@H](n2/c(=N/C(=O)c3ccc(F)cc3)[nH]c3ccc(CN4CCC(C)(O)CC4)cc32)CC1` [Example 183, (E)-4-Fluoro-N-(6-((4-hydroxy-4-methylpiperidin-1-yl)methyl)-1-(cis-4-(isopropylcarbamoyl)cyclohexyl)-1H-benzo[d]imidazol-2(3H)-ylidene)benzamide], the figure is less than 50 nM; as for `CC(C)NC(=O)[C@H]1CC[C@@H](n2/c(=N/C(=O)c3ccc(F)cc3)[nH]c3ccc(CN4CCN(CC(C)(C)O)CC4)cc32)CC1` [Example 185, (E)-4-Fluoro-N-(6-((4-(2-hydroxy-2-methylpropyl)piperazin-1-yl)methyl)-1-(cis-4-(isopropylcarbamoyl)cyclohexyl)-1H-benzo[d]imidazol-2(3H)-ylidene)benzamide], less than 50 nM. With `CC(C)NC(=O)[C@H]1CC[C@@H](n2/c(=N/C(=O)c3ccc(F)cc3)[nH]c3ccc(CN4CCC(C(O)C(F)(F)F)CC4)cc32)CC1` (stereo partly drawn) [Example 186, (E)-4-Fluoro-N-(1-(cis-4-(isopropylcarbamoyl)-cyclohexyl)-6-((4-(2,2,2-trifluoro-1-hydroxyethyl)piperidin-1-yl)methyl)-1H-benzo[d]imidazol-2(3H)-ylidene)benzamide], the IC50 is less than 50 nM. On to `CC[N+](CC)(CC)Cc1ccc2[nH]/c(=N\C(=O)c3ccc(F)cc3)n([C@H]3CC[C@@H](C(=O)NC(C)C)CC3)c2c1` [Example 187, N,N-Diethyl-N-(((E)-2-(4-fluorobenzoylimino)-3-(cis-4-(isopropylcarbamoyl)cyclohexyl)-2,3-dihydro-1H-benzo[d]imidazol-5-yl)methyl)ethanaminium chloride], for which the half-maximal inhibitory concentration (IC50) was less than 50 nM. In the case of `CC(C)NC(=O)[C@H]1CC[C@@H](n2/c(=N/C(=O)c3ccc(F)cc3)[nH]c3ccc(CN4CCC(CNCC(F)(F)F)CC4)cc32)CC1` [Example 190, (E)-4-Fluoro-N-(1-(cis-4-(isopropylcarbamoyl)cyclohexyl)-6-((4-((2,2,2-trifluoroethylamino)methyl)piperidin-1-yl)methyl)-1H-benzo[d]imidazol-2(3H)-ylidene)benzamide], the IC50 is less than 50 nM. For `CC(C)NC(=O)[C@H]1CC[C@@H](n2/c(=N/C(=O)c3ccc(F)cc3)[nH]c3ccc(CN4CCC(F)(F)CC4)cc32)CC1` [Example 191, (E)-N-(6-((4,4-Difluoropiperidin-1-yl)methyl)-1-(cis-4-(isopropylcarbamoyl)cyclohexyl)-1H-benzo[d]imidazol-2(3H)-ylidene)-4-fluorobenzamide], the IC50 is less than 50 nM.

`COCc1ccc2[nH]/c(=N\C(=O)c3ccc(F)cc3)n([C@H]3CC[C@@H](C(=O)NC(C)C)CC3)c2c1` [Example 192, (E)-4-Fluoro-N-(1-(cis-4-(isopropylcarbamoyl)cyclohexyl)-6-(methoxymethyl)-1H-benzo[d]imidazol-2(3H)-ylidene)benzamide] had a half-maximal inhibitory concentration (IC50) of less than 50 nM. For `CC(C)NC(=O)[C@H]1CC[C@@H](n2/c(=N/C(=O)c3ccc(F)cc3)[nH]c3ccc(Cn4cnnc4)cc32)CC1` [Example 195, (E)-N-(6-((4H-1,2,4-Triazol-4-yl)methyl)-1-(cis-4-(isopropylcarbamoyl)cyclohexyl)-1H-benzo[d]imidazol-2(3H)-ylidene)-4-fluorobenzamide], the IC50 was less than 50 nM.

`CC(C)NC(=O)[C@H]1CC[C@@H](n2/c(=N/C(=O)c3ccc(F)cc3)[nH]c3ccc(CN4CCC(F)(F)C4)cc32)CC1` [Example 196, (E)-N-(6-((3,3-Difluoropyrrolidin-1-yl)methyl)-1-(cis-4-(isopropylcarbamoyl)cyclohexyl)-1H-benzo[d]imidazol-2(3H)-ylidene)-4-fluorobenzamide] gave an IC50 of less than 50 nM. Turning to `CC(C)NC(=O)[C@H]1CC[C@@H](n2/c(=N/C(=O)c3ccc(F)cc3)[nH]c3ccc(Cn4cccn4)cc32)CC1` [Example 197, (E)-N-(6-((1H-Pyrazol-1-yl)methyl)-1-(cis-4-(isopropylcarbamoyl)cyclohexyl)-1H-benzo[d]imidazol-2(3H)-ylidene)-4-fluorobenzamide], the IC50 was less than 50 nM. The value for `COCCOCc1ccc2[nH]/c(=N\C(=O)c3ccc(F)cc3)n([C@H]3CC[C@@H](C(=O)NC(C)C)CC3)c2c1` [Example 198, (E)-4-Fluoro-N-(1-(cis-4-(isopropylcarbamoyl)cyclohexyl)-6-((2-methoxyethoxy)methyl)-1H-benzo[d]imidazol-2(3H)-ylidene)benzamide] was less than 50 nM; that for `CC(C)(CO)NC(=O)[C@H]1CC[C@@H](n2/c(=N/C(=O)c3ccc(F)cc3)[nH]c3ccc(CN4CCOCC4)cc32)CC1` [Example 199, (E)-4-Fluoro-N-(1-(cis-4-(1-hydroxy-2-methylpropan-2-ylcarbamoyl)cyclohexyl)-6-(morpholinomethyl)-1H-benzo[d]imidazol-2(3H)-ylidene)benzamide] was less than 50 nM. The value for `C[C@H](CO)NC(=O)[C@H]1CC[C@@H](n2/c(=N/C(=O)c3ccc(F)cc3)[nH]c3ccc(CN4CCOCC4)cc32)CC1` [Example 200, (E)-4-Fluoro-N-(1-(cis-4-((R)-1-hydroxypropan-2-ylcarbamoyl)cyclohexyl)-6-(morpholinomethyl)-1H-benzo[d]imidazol-2(3H)-ylidene)benzamide] was less than 50 nM.

Compound `O=C(/N=c1\[nH]c2ccc(CN3CCOCC3)cc2n1[C@H]1CC[C@@H](C(=O)NCCO)CC1)c1ccc(F)cc1` [Example 201, (E)-4-Fluoro-N-(1-(cis-4-(2-hydroxyethylcarbamoyl)cyclohexyl)-6-(morpholinomethyl)-1H-benzo[d]imidazol-2(3H)-ylidene)benzamide] had an IC50 of less than 50 nM. The compound `O=C(/N=c1\[nH]c2ccc(CN3CCOCC3)cc2n1[C@H]1CC[C@@H](C(=O)N2CCOCC2)CC1)c1ccc(F)cc1` [Example 202, (E)-4-Fluoro-N-(1-(cis-4-(morpholine-4-carbonyl)cyclohexyl)-6-(morpholinomethyl)-1H-benzo[d]imidazol-2(3H)-ylidene)benzamide] had an IC50 of 100 to 1000 nM. `CN1CCN(C(=O)[C@H]2CC[C@@H](n3/c(=N/C(=O)c4ccc(F)cc4)[nH]c4ccc(CN5CCOCC5)cc43)CC2)CC1` [Example 203, (E)-4-Fluoro-N-(1-(cis-4-(4-methylpiperazine-1-carbonyl)cyclohexyl)-6-(morpholinomethyl)-1H-benzo[d]imidazol-2(3H)-ylidene)benzamide] had an IC50 of 100 to 1000 nM. For the compound `O=C(/N=c1\[nH]c2ccc(CN3CCOCC3)cc2n1[C@H]1CC[C@@H](C(=O)N2CCNCC2)CC1)c1ccc(F)cc1` [Example 204, (E)-4-Fluoro-N-(6-(morpholinomethyl)-1-(cis-4-(piperazine-1-carbonyl)cyclohexyl)-1H-benzo[d]imidazol-2(3H)-ylidene)benzamide], the IC50 is less than 50 nM.

In the case of `NC(=O)[C@H]1CC[C@@H](n2/c(=N/C(=O)c3ccc(F)cc3)[nH]c3ccc(CN4CCOCC4)cc32)CC1` [Example 205, (E)-N-(1-(cis-4-Carbamoylcyclohexyl)-6-(morpholinomethyl)-1H-benzo[d]imidazol-2(3H)-ylidene)-4-fluorobenzamide], the IC50 was less than 50 nM. The value for `CC(C)(O)CNC(=O)[C@H]1CC[C@@H](n2/c(=N/C(=O)c3ccc(F)cc3)[nH]c3ccc(CN4CCOCC4)cc32)CC1` [Example 206, (E)-4-Fluoro-N-(1-(cis-4-(2-hydroxy-2-methylpropylcarbamoyl)-cyclohexyl)-6-(morpholinomethyl)-1H-benzo[d]imidazol-2(3H)-ylidene)benzamide] was 50 to 100 nM; that for `O=C(/N=c1\[nH]c2ccc(CN3CCOCC3)cc2n1[C@H]1CC[C@@H](C(=O)NO)CC1)c1ccc(F)cc1` [Example 207, (E)-4-Fluoro-N-(1-(cis-4-(hydroxycarbamoyl)cyclohexyl)-6-(morpholinomethyl)-1H-benzo[d]imidazol-2(3H)-ylidene)benzamide] was 50 to 100 nM; that for `CONC(=O)[C@H]1CC[C@@H](n2/c(=N/C(=O)c3ccc(F)cc3)[nH]c3ccc(CN4CCOCC4)cc32)CC1` [Example 208, (E)-4-Fluoro-N-(1-(cis-4-(methoxycarbamoyl)cyclohexyl)-6-(morpholinomethyl)-1H-benzo[d]imidazol-2(3H)-ylidene)benzamide] was less than 50 nM. In the case of `COC(=O)[C@H]1CC[C@@H](n2/c(=N/C(=O)c3ccc(F)cc3)[nH]c3ccc(CN4CCC(C(C)(C)O)CC4)cc32)CC1` [Example 209, cis-Methyl 4-((E)-2-(4-fluorobenzoylimino)-6-((4-(2-hydroxypropan-2-yl)piperidin-1-yl)methyl)-2,3-dihydro-1H-benzo[d]imidazol-1-yl)cyclohexanecarboxylate], the IC50 was less than 50 nM. Compound `CC(C)(O)C1CCN(Cc2ccc3[nH]/c(=N\C(=O)c4ccc(F)cc4)n([C@H]4CC[C@@H](C(=O)O)CC4)c3c2)CC1` [Example 210, cis-4-((E)-2-(4-Fluorobenzoylimino)-6-((4-(2-hydroxypropan-2-yl)piperidin-1-yl)methyl)-2,3-dihydro-1H-benzo[d]imidazol-1-yl)cyclohexanecarboxylic acid] had an IC50 of 100 to 1000 nM.
